Test results published in US20040142952A1, “Triazoloquinazoline and pyrazolotriazolopyrimidine derivatives, medicinal compositions, adenosine a3 receptor affinity agents, ocular tension lowering agents, preparations for preventing and treating glaucoma and method of lowering ocular tension” (priority 2001, published 2004).

A melting point of 147 to 148 °C was found for `CCc1nc2ccccc2c2nc(-c3ccc(C)cc3)nn12` [Example 69, 5-ethyl-2-(4-methylphenyl)-1,2,4-triazolo[1,5-c]quinazoline] in this work. A melting point of 147.5 to 150 °C was found for `CCCCc1nc2ccc(Cl)cc2c2nc(-c3ccc(F)cc3)nn12` [Example 74, 5-n-butyl-9-chloro-2-(4-fluorophenyl)-1,2,4-triazolo[1,5-c]quinazoline] in this work. For `CCCCc1nc2nn(CC(=O)O)cc2c2nc(-c3ccccc3)nn12` [Example 152, 2-(5-n-butyl-2-phenylpyrazolo[4,3-e]-1,2,4-triazolo[1,5-c]pyrimidin-8-yl)acetic acid], the melting point was > 281 °C (dec.). A melting point of 131.5 to 132 °C was found for `CCCCc1nc2c(cnn2CCC)c2nc(-c3ccc(Cl)cc3)nn12` [Example 126, 5-n-butyl-2-(4-chlorophenyl)-7-n-propylpyrazolo[4,3-e]-1,2,4-triazolo[1,5-c]pyrimidine] in this work. A melting point of 164 to 164.5 °C was found for `CCCCc1nc2c(cnn2CCO)c2nc(-c3ccc(Cl)cc3)nn12` [Example 138, 5-n-butyl-2-(4-chlorophenyl)-7-(2-hydroxyethyl)pyrazolo[4,3-e]-1,2,4-triazolo[1,5-c]pyrimidine] in this work. A melting point of 204 to 205 °C was found for `CCCCc1nc2nncc-2c2nc(-c3ccc(SC)cc3)[nH]n12` [Example 56, 5-n-butyl-2-(4-methylthiophenyl)pyrazolo[4,3-e]-1,2,4-triazolo[1,5-c]pyrimidine] in this work. A melting point of 274 to 275 °C was found for `CCCc1nc2nncc-2c2nc(-c3ccc(C)cc3)[nH]n12` [Example 60, 2-(4-methylphenyl)-5-n-propylpyrazolo[4,3-e]-1,2,4-triazolo[1,5-c]pyrimidine] in this work. A melting point of 128 to 129 °C was found for `CCCCc1nc2ccccc2c2nc(-c3ccc(OCCC)cc3)nn12` [Example 36, 5-n-butyl-2-(4-propoxyphenyl)-1,2,4-triazolo[1,5-c]quinazoline] in this work. A melting point of 271 to 272.5 °C was found for `CCCCc1nc2c(cnn2CC(=O)O)c2nc(-c3ccccc3)nn12` [Example 151, 2-(5-n-butyl-2-phenylpyrazolo[4,3-e]-1,2,4-triazolo[1,5-c]pyrimidin-7-yl)acetic acid] in this work. A melting point of 203.5 to 205 °C was found for `CCCCc1nc2nn(C)cc2c2nc(-c3ccc(Cl)cc3)nn12` [Example 119, 2-(4-chlorophenyl)-5-n-butyl-8-methylpyrazolo[4,3-e]-1,2,4-triazolo[1,5-c]pyrimidine] in this work. A melting point of 211 to 211.5 °C was found for `O=C(O)CCCc1nc2ccccc2c2nc(-c3ccccc3)nn12` [Example 153, 4-(2-phenyl-1,2,4-triazolo[1,5-c]quinazolin-5-yl)butyric acid] in this work. A melting point of 147 to 149 °C was found for `CCCc1nc2cc(Cl)ccc2c2nc(-c3ccccc3)nn12` [Example 79, 8-chloro-2-phenyl-5-n-propyl-1,2,4-triazolo[1,5-c]quinazoline] in this work. A melting point of 207 to 208 °C was found for `CCCCCCc1nc2nncc-2c2nc(-c3ccccc3)[nH]n12` [Example 88, 5-n-hexyl-2-phenylpyrazolo[4,3-e]-1,2,4-triazolo[1,5-c]pyrimidine] in this work. A melting point of 132 to 133 °C was found for `CCCCc1nc2c(cnn2CCO)c2nc(-c3ccccc3)nn12` [Example 132, 5-n-butyl-7-(2-hydroxyethyl)-2-phenylpyrazolo[4,3-e]-1,2,4-triazolo[1,5-c]pyrimidine] in this work. A melting point of 141 to 142 °C was found for `CCCCc1nc2nn(CC)cc2c2nc(-c3ccc(Cl)cc3)nn12` [Example 145, 5-n-butyl-2-(4-chlorophenyl)-8-ethylpyrazolo[4,3-e]-1,2,4-triazolo[1,5-c]pyrimidine] in this work. A melting point of 145 to 146.5 °C was found for `COC(=O)CCCc1nc2ccc(Cl)cc2c2nc(-c3ccc(Cl)cc3)nn12` [Example 104, methyl 4-[9-chloro-2-(4-chlorophenyl)-1,2,4-triazolo[1,5-c]quinazolin-5-yl]butyrate] in this work. A melting point of 127 to 128 °C was found for `CCCCc1nc2nn(CC)cc2c2nc(-c3ccc(OC)cc3)nn12` [Example 142, 5-n-butyl-8-ethyl-2-(4-methoxyphenyl)pyrazolo[4,3-e]-1,2,4-triazolo[1,5-c]pyrimidine] in this work. A melting point of 202 to 203 °C was found for `CCCCc1nc2nn(CCO)cc2c2nc(-c3ccc(F)cc3)nn12` [Example 135, 5-n-butyl-2-(4-fluorophenyl)-8-(2-hydroxyethyl)pyrazolo[4,3-e]-1,2,4-triazolo[1,5-c]pyrimidine] in this work. A melting point of 116 to 117 °C was found for `CCCCCc1nc2ccccc2c2nc(-c3ccc(OCC)cc3)nn12` [Example 106, 2-(4-ethoxyphenyl)-5-n-pentyl-1,2,4-triazolo[1,5-c]quinazoline] in this work. A melting point of 113 to 113.5 °C was found for `CCCCc1nc2c(cnn2CCC)c2nc(-c3ccc(C)cc3)nn12` [Example 122, 5-n-butyl-2-(4-methylphenyl)-7-n-propylpyrazolo[4,3-e]-1,2,4-triazolo[1,5-c]pyrimidine] in this work. A melting point of 227 to 228 °C was found for `O=C(O)CCCc1nc2ccccc2c2nc(-c3ccc(Cl)cc3)nn12` [Example 156, 4-[2-(4-chlorophenyl)-1,2,4-triazolo[1,5-c]quinazolin-5-yl]butyric acid] in this work. A melting point greater than 280 °C was found for `CCc1nc2nncc-2c2nc(-c3ccc(Cl)cc3)[nH]n12` [Example 64, 2-(4-chlorophenyl)-5-ethylpyrazolo[4,3-e]-1,2,4-triazolo[1,5-c]pyrimidine] in this work. A melting point of 171 to 173 °C was found for `CCCCc1nc2nn(CCO)cc2c2nc(-c3ccc(C)cc3)nn12` [Example 137, 5-n-butyl-8-(2-hydroxyethyl)-2-(4-methylphenyl)pyrazolo[4,3-e]-1,2,4-triazolo[1,5-c]pyrimidine] in this work. A melting point of 150 to 152 °C was found for `CCCCc1nc2cc(OC)c(OC)cc2c2nc(-c3ccccc3)nn12` [Example 48, 5-n-butyl-8,9-dimethoxy-2-phenyl-1,2,4-triazolo[1,5-c]quinazoline] in this work. A melting point of 197 to 198 °C was found for `CCc1nc2ccccc2c2nc(-c3ccc(Br)cc3)nn12` [Example 66, 2-(4-bromophenyl)-5-ethyl-1,2,4-triazolo[1,5-c]quinazoline] in this work. A melting point of 159 to 160 °C was found for `CCCCc1nc2nn(Cc3ccccc3)cc2c2nc(-c3ccccc3)nn12` [Example 117, 8-benzyl-5-n-butyl-2-phenylpyrazolo[4,3-e]-1,2,4-triazolo[1,5-c]pyrimidine] in this work. A melting point of 133 to 134 °C was found for `CCCCCc1nc2ccccc2c2nc(-c3ccc(Br)cc3)nn12` [Example 102, 2-(4-bromophenyl)-5-n-pentyl-1,2,4-triazolo[1,5-c]quinazoline] in this work. A melting point of 101.5 to 103.5 °C was found for `CCCCc1nc2nn(CCC)cc2c2nc(-c3ccc(C)cc3)nn12` [Example 123, 5-n-butyl-2-(4-methylphenyl)-8-n-propylpyrazolo[4,3-e]-1,2,4-triazolo[1,5-c]pyrimidine] in this work. A melting point of 131.5 to 132.5 °C was found for `CCCCc1nc2c(cnn2CC(=O)OCC)c2nc(-c3ccccc3)nn12` [Example 128, ethyl 2-(5-n-butyl-2-phenylpyrazolo[4,3-e]-1,2,4-triazolo[1,5-c]pyrimidin-7-yl)acetate] in this work. A melting point of 120.5 to 121.5 °C was found for `COC(=O)CCCc1nc2ccccc2c2nc(-c3ccc(C)cc3)nn12` [Example 100, methyl 4-[2-(4-methylphenyl)-1,2,4-triazolo[1,5-c]quinazolin-5-yl]butyrate] in this work. A melting point of 137 to 138 °C was found for `CCCCc1nc2nn(CCC)cc2c2nc(-c3ccc(Cl)cc3)nn12` [Example 127, 5-n-butyl-2-(4-chlorophenyl)-8-n-propylpyrazolo[4,3-e]-1,2,4-triazolo[1,5-c]pyrimidine] in this work. A melting point of 259 to 262 °C was found for `CCCCc1nc2nncc-2c2nc(-c3cc(OC)c(OC)c(OC)c3)[nH]n12` [Example 15, 5-n-butyl-2-(3,4,5-trimethoxyphenyl)pyrazolo[4,3-e]-1,2,4-triazolo[1,5-c]pyrimidine] in this work. A melting point of 217 to 219 °C was found for `CCCCc1nc2nncc-2c2nc(-c3cccnc3)[nH]n12` [Example 18, 5-n-butyl-2-(3-pyridyl)pyrazolo[4,3-e]-1,2,4-triazolo[1,5-c]pyrimidine] in this work. A melting point of 106.5 to 107.5 °C was found for `CCCCc1nc2ccccc2c2nc(-c3ccccc3OC)nn12` [Example 33, 5-n-butyl-2-(2-methoxyphenyl)-1,2,4-triazolo[1,5-c]quinazoline] in this work. A melting point of 150.5 to 151.5 °C was found for `CCCCc1nc2c(cnn2CCO)c2nc(-c3ccc(F)cc3)nn12` [Example 134, 5-n-butyl-2-(4-fluorophenyl)-7-(2-hydroxyethyl)pyrazolo[4,3-e]-1,2,4-triazolo[1,5-c]pyrimidine] in this work. A melting point of 130 to 133 °C was found for `CCCCc1nc2ccccc2c2nc(-c3cc(OC)c(OC)c(OC)c3)nn12` [Example 37, 5-n-butyl-2-(3,4,5-trimethoxyphenyl)-1,2,4-triazolo[1,5-c]quinazoline] in this work. A melting point of 139.5 to 140.5 °C was found for `CCCCc1nc2c(cnn2CC(=O)OCC)c2nc(-c3ccc(F)cc3)nn12` [Example 130, ethyl 2-[5-n-butyl-2-(4-fluorophenyl)pyrazolo[4,3-e]-1,2,4-triazolo[1,5-c]pyrimidin-7-yl]acetate] in this work. A melting point of 194.5 to 196.5 °C was found for `COC(=O)CCCc1nc2nncc-2c2nc(-c3ccc(Cl)cc3)[nH]n12` [Example 91, methyl 4-[2-(4-chlorophenyl)pyrazolo[4,3-e]-1,2,4-triazolo[1,5-c]pyrimidin-5-yl]butyrate] in this work. A melting point of 123 to 125 °C was found for `CCCCCc1nc2ccccc2c2nc(-c3ccc(OC)cc3)nn12` [Example 105, 2-(4-methoxyphenyl)-5-n-pentyl-1,2,4-triazolo[1,5-c]quinazoline] in this work. A melting point of 197 to 198 °C was found for `CCc1nc2ccccc2c2nc(-c3ccc(Cl)cc3)nn12` [Example 68, 2-(4-chlorophenyl)-5-ethyl-1,2,4-triazolo[1,5-c]quinazoline] in this work. A melting point of 118 to 118.5 °C was found for `CCCCCc1nc2ccccc2c2nc(-c3ccccc3)nn12` [Example 93, 5-n-pentyl-2-phenyl-1,2,4-triazolo[1,5-c]quinazoline] in this work. A melting point of 157 to 160 °C was found for `CCCCc1nc2nncc-2c2nc(-c3ccccc3OC)[nH]n12` [Example 53, 5-n-butyl-2-(2-methoxyphenyl)pyrazolo[4,3-e]-1,2,4-triazolo[1,5-c]pyrimidine] in this work. A melting point of 147.5 to 148.5 °C was found for `CCCCc1nc2c(cnn2CCO)c2nc(-c3ccc(OC)cc3)nn12` [Example 140, 5-n-butyl-7-(2-hydroxyethyl)-2-(4-methoxyphenyl)pyrazolo[4,3-e]-1,2,4-triazolo[1,5-c]pyrimidine] in this work.
